BigSolDB 2.1

Oc1ccc(Cl)cc1C=Nc1ccccn1
solubility (mole fraction)
Conditions | 268.15 K | 273.15 K | 278.15 K | 283.15 K | 288.15 K | 293.15 K | 298.15 K | 303.15 K
in THF | 0.0285 | 0.0323 | 0.0362 | 0.0406 | 0.0466 | 0.0545 | 0.0649 | 0.0735
in dichloromethane | 0.00836 | 0.0124 | 0.0166 | 0.0193 | 0.0247 | 0.0306 | 0.0355 | 0.0429
in diethyl ether | 0.00329 | 0.00427 | 0.00513 | 0.00605 | 0.00728 | 0.00844 | 0.0105 | 0.0121
in toluene | 0.0103 | 0.0111 | 0.0136 | 0.017 | 0.0192 | 0.0228 | 0.0277 | 0.0339

Oc1ccccc1/C=N/c1ccccn1
solubility (mole fraction)
Conditions | 268.15 K | 273.15 K | 278.15 K | 283.15 K | 288.15 K | 293.15 K | 298.15 K
in diethyl ether | 0.0581 | 0.0673 | 0.0873 | 0.107 | 0.14 | 0.17 | 0.231
in ethanol | 0.0099 | 0.0121 | 0.0152 | 0.0199 | 0.0266 | 0.035 | 0.0489
in methanol | 0.00796 | 0.0107 | 0.0146 | 0.0187 | 0.0255 | 0.0346 | 0.0503
in toluene | 0.135 | 0.174 | 0.215 | 0.26 | 0.316 | 0.361 | 0.423
